Laboratory results from patent publication US20200337993A1, “INTRACANALICULAR HYDROGEL INSERTS FOR THE DELIVERY OF ANESTHETICS” (Ocular Therapeutix, Inc., priority 2019, published 2020).
Read-outs that look alike come from different tables or passages of the source.

Columns and labels:
[1] = Bupivacaine concentrations in tear fluid after intracanalicular administration (LC/MS of Schirmer strip samples); assay type: in vivo, beagle dogs; settings: female, beagle, dog, other: intracanalicular, 160 μg; for concentration at 2 day: Day 2, N=3, intracanalicular Inventive Composition insert; for concentration at 3 day: Day 3, N=6, intracanalicular Inventive Composition insert; for concentration at 4 day: Day 4, N=6, intracanalicular Inventive Composition insert; for concentration at 5 day: Day 5, N=3, intracanalicular Inventive Composition insert
Protocol: Corneal wounds were created in both eyes (OU) of ten female beagle dogs on Day 0 using epithelial debridement. Animals were post-operatively monitored and treated with eye drops. The Inventive Composition (IC) containing approximately 160 μg of bupivacaine was inserted into the lower or upper lid punctum of one eye of all ten dogs on Day 0 after corneal wounding and removed on Day 7 after wounding. Clinical ophthalmic examinations (slit-lamp biomicroscopy) were conducted daily on weekdays through Day 7. Fluorescein staining was performed and slit-lamp photographs were taken on Days 0, 3, 5, and 7 (Group 1) or on Days 0, 2, 4, and 7 (Group 2). Corneal esthesiometry was performed at baseline and on Days 0, 3-7, 10-14, 31-35, and 38-42 (Group 1) or on Days 0-4, 7-11, 14, 28-32, and 35-39 (Group 2). General health observations and gross ocular observations were performed daily from Day 1 through Day 11 (Group 1) or Day 8 (Group 2). Body weights were recorded prior to dosing and on Day 7. Tears were collected on Days 3, 4, and 5 (Group 1) or on Days 1, 2, 3, and 4 (Group 2). The two groups were staggered in order to collect tear film samples on days 1, 2, 3, 4 and 5 using Schirmer test strips. Tear film samples were collected in the morning prior to administration of drops, in order to avoid dilution of the samples. Pre and post weights were collected on the tear film strips, and samples were sent to PharmOptima, LLC (Portage, Mich.) for bioanalysis via LC/MS. The PK portion of the study measured concentrations of bupivacaine released from the Inventive Composition into the tear fluid over 5 days following intracanalicular administration in beagle dogs and results are presented in Table 3. Tear fluid samples were collected pre-drop administration to prevent dilution of the bupivacaine concentrations. The PK profile indicates elevated concentrations of bupivacaine in the tear fluid through 4 days with a decrease observed at 5 days.

[2] = In vitro release of bupivacaine from the Inventive Composition in PBS, pH 7.4 at 37° C.; assay type: physicochemical
[3] = read-out: Bupivacaine concentration in tear fluid, Average
[4] = read-out: Bupivacaine concentration in tear fluid, Maximum
[5] = read-out: Bupivacaine concentration in tear fluid, Median
[6] = read-out: Bupivacaine concentration in tear fluid, Minimum

A concentration at 1 day ([1]; Day 1, N=3, intracanalicular Inventive Composition insert (approx. 160 μg bupivacaine), Groups 1 and 2, read-out: Bupivacaine concentration in tear fluid, Average) of 780 ng/mL, a concentration at 1 day ([1]; Day 1, N=3, intracanalicular Inventive Composition insert, read-out: Bupivacaine concentration in tear fluid, Maximum) of 1520 ng/mL and a concentration at 1 day ([1]; Day 1, N=3, intracanalicular Inventive Composition insert, read-out: Bupivacaine concentration in tear fluid, Median) of 550 ng/mL were found for `CCCCN1CCCCC1C(=O)Nc1c(C)cccc1C` (stereo not shown) [Bupivacaine, bupivacaine] in this work. The concentration at 1 day ([1]; Day 1, N=3, intracanalicular Inventive Composition insert, read-out: Bupivacaine concentration in tear fluid, Minimum) was 280 ng/mL, the concentration at 2 day [1, 3] was 380 ng/mL and the concentration at 2 day [1, 4] was 770 ng/mL. It also gave a concentration at 2 day [1, 5] of 230 ng/mL, a concentration at 2 day [1, 6] of 150 ng/mL and a concentration at 3 day [1, 3] of 740 ng/mL. For the same compound, the concentration at 3 day [1, 4] was 1520 ng/mL, the concentration at 3 day [1, 5] was 590 ng/mL and the concentration at 3 day [1, 6] was 100 ng/mL. The concentration at 4 day [1, 3] was 570 ng/mL, the concentration at 4 day [1, 4] was 1180 ng/mL and the concentration at 4 day [1, 5] was 450 ng/mL. The concentration at 4 day [1, 6] was 80 ng/mL, the concentration at 5 day [1, 3] was 250 ng/mL and the concentration at 5 day [1, 4] was 430 ng/mL. The concentration at 5 day [1, 5] was 230 ng/mL, the concentration at 5 day [1, 6] was 100 ng/mL and the “Bupivacaine Release Rate” value ([2]; in vitro sampling period 0-1 hours (burst phase)) was 14.6 µg/h. For the same compound, the “Bupivacaine Release Rate” value ([2]; in vitro sampling period 1-18 hours) was 3.4 µg/h, the “Bupivacaine Release Rate” value ([2]; in vitro sampling period 18-26 hours) was 1.5 µg/h and the “Bupivacaine Release Rate” value ([2]; in vitro sampling period 26-42 hours) was 1.1 µg/h. The “Bupivacaine Release Rate” value ([2]; in vitro sampling period 42-68 hours) was 1.0 µg/h, the “Bupivacaine Release Rate” value ([2]; in vitro sampling period 68-93 hours) was 0.6 µg/h and the “Bupivacaine Release Rate” value ([2]; in vitro sampling period 93-115 hours) was 0.4 µg/h. For the same compound, the “Bupivacaine Release Rate” value ([2]; in vitro sampling period 115-168 hours) was 0.1 µg/h.
